Reference: patent US20240239750A1, “PHARMACEUTICAL PREPARATION” (Aerie Pharmaceuticals, Inc., priority 2021, published 2024)
Several values for one entry are separate records, joined by “and”; a condition that tells them apart may be missing. Equal values may be shown once. Values belong to the compound of their own block, whether it stands above or below them.

Legend:
Assay type in all cases: physicochemical
[1] = TG/DSC thermal analysis; conditions: for Enthalpy / Onset Temperature / Signal Temperature: TG/DSC signal of Compound 1 mono-tosylate solid form; for onset of thermal decomposition: TG/DSC, 10° C./min
Procedure: (§1) Thermogravimetric Analysis/Differential Scanning Calorimetry (TGA/DSC): Approximately, 5-10 mg of material was added into a pre-tared open aluminum pan and loaded into a TA Instruments Discovery SDT 650 Auto—Simultaneous DSC and held at room temperature. The sample was then heated at a rate of 10° C./min from 30° C. to 350° C. during which time the change in sample weight was recorded along with the heat flow response (DSC). Nitrogen was used as the sample purge gas, at a flow rate of 200 cm^3/min.
as §1, with “Thermogravimetric/Differential Thermal Analysis (TG/DTA):” for “Thermogravimetric Analysis/Differential Scanning Calorimetry (TGA/DSC):”, “cm^3/min. […]” for “cm^3/min.”

[2] = 7 day stability study of solid forms (XRPD, HPLC); conditions: stored 7 days; 40° C./75% RH (open vial) according to b80 and FIG. 14 legend
Procedure: Crystalline form 5 of Compound 1 mono-tosylate was obtained during a 7 day stability study for crystalline forms 1 and 4. In the study, 3×20 mg (0.04 mmol) of crystalline forms 1 and 4, and amorphous Compound 1 mono-tosylate, were individually weighted into 1.5 mL vials and stored under the following conditions for 7 days: • (i) 40° C./75% relative humidity (RH) (open vial); • (ii) 80° C./ambient humidity (sealed vial); and • (iii) Ambient conditions (open vial).
After 7 days, any remaining solids recovered were analyzed by XRPD to assess form purity and HPLC changes in chemical purity. […] More crystalline form 5 was prepared by storing 100 mg of crystalline form 4 […] for approximately 4 days.

[3] = Drying of solids and re-analysis by XRPD (form conversion)
Procedure: Any new solids which produced patterns by XRPD were dried at 40° C. for 24 hours before being analyzed again. Potential New Patterns were also analyzed by ^1H NMR, PLM and TG/DSC.
To prepare crystalline forms 1 and 4 of Compound 1 mono-tosylate, 2×500 mg (1.01 mmol) of amorphous Compound 1 mono-tosylate was placed into 20 ml vials. To each of these vials, 12 ml of solvent (dichloromethane for crystalline form 1 and tetrahydrofuran for crystalline form 4) was added to prepare slurries. Volumes/mass used were a direct scale-up from the primary screen discussed above. The slurries were thermally cycled (with agitation) between ambient temperature and 40° C. (4-hour cycles at each condition) for 72 hours. Post-thermal cycling, an aliquot of solid was removed from each vial using a micro-spatula and analyzed by XRPD to confirm that the desired form was produced. The remainder of each slurry was then filtered by Buchner filtration. The solids were dried on the filter bed for no longer than 1 minute before being transferred to pre-weighed 20 ml vials. The solids were then dried under vacuum at ambient temperature for 2 hours. Another aliquot of each solid was analyzed by XRPD post-drying. […] As such, the solids were transferred to an oven at 40° C. (ambient pressure) and subsequently dried for approximately 18 hours. […] Crystalline form 1 yield: 86.1%. Crystalline form 4 yield: 84.2%.

[4] = Polymorph stability study (competitive slurrying)
Procedure: To prepare solutions saturated with Compound 1 mono-tosylate for competitive slurrying, 2×100 mg (0.20 mmol) amorphous Compound 1 mono-tosylate was weighed into 2×4 mL vials. To each vial, 500 μL of ethanol was added and the vials were manually shaken for a few seconds. Complete dissolution was noted. A further about 20 mg of amorphous Compound 1 mono-tosylate was added to each vial and the vials were agitated for about 3 hours: one vial at ambient temperature and one vial at 60° C. After about 3 hours, both were solutions. More amorphous Compound 1 mono-tosylate (about 30 mg) was added to each vial and they were shaken at their respective temperatures again for about another hour. Both appeared to be slurries. To remove the excess solids, the slurries were filtered centrifugally and the mother liquors each placed into separate, clean vials. […] After 48 hours, the solids were recovered via centrifugal filtration and analyzed by XRPD. The XRPD plate containing the solids was then dried at 40° C. for 2 hours and re-analyzed.
To prepare a solution saturated with amorphous Compound 1 mono-tosylate for competitive slurrying, 50 mg (0.10 mmol) of amorphous Compound 1 mono-tosylate was weighed into a 4 mL vial. […] After 72 hours, the solids were recovered via centrifugal filtration and analyzed by XRPD.

[5] = listed as Amorphous, mono-tosylate salt
[6] = listed as Form 6, mono-tosylate salt

Enthalpy ([1]; listed as Form 4, mono-tosylate salt): 148.3 J/g and 126.6 J/g
SMILES: Cc1ccc(S(=O)(=O)O)cc1.NC[C@@H](C(=O)Nc1ccc2cnccc2c1)c1ccc(CO)cc1 [crystalline form 4, alpha-(aminomethyl)-4-(hydroxymethyl)-N-6-isoquinolinyl-(S)-benzeneacetamide mono-tosylate salt]
crystalline form found by XRPD after 7 day stability study [2]: converted into a new crystalline form: crystalline form 5

Enthalpy [1, 5]: 94.1 J/g
Onset Temperature [1, 5]: 184.0 °C
Signal Temperature [1, 5]: 202.1 °C
onset of thermal decomposition ([1]; listed as amorphous Compound 1, mono-tosylate salt): 184 °C
onset of thermal decomposition ([1]; listed as amorphous material, mono-tosylate salt): about 184 °C
SMILES: Cc1ccc(S(=O)(=O)O)cc1.NC[C@@H](C(=O)Nc1ccc2cnccc2c1)c1ccc(CO)cc1 [amorphous Compound 1 mono-tosylate, alpha-(aminomethyl)-4-(hydroxymethyl)-N-6-isoquinolinyl-(S)-benzeneacetamide mono-tosylate salt]
onset of thermal decomposition ([1]; listed as Amorphous Compound 1 Mono-Tosylate, mono-tosylate salt): event associated with decomposition observed (onset 184° C.)

form conversion on drying ([3]; drying at 40° C. for approximately 24 hours): convert to crystalline form 4
form conversion on drying ([3]; oven at 40° C. (ambient pressure), approximately 18 hours): converted to crystalline form 4
form after drying ([3]; under vacuum at ambient temperature for 2 hours): crystalline form 3 remained also
SMILES: Cc1ccc(S(=O)(=O)O)cc1.NC[C@@H](C(=O)Nc1ccc2cnccc2c1)c1ccc(CO)cc1 [crystalline form 3, alpha-(aminomethyl)-4-(hydroxymethyl)-N-6-isoquinolinyl-(S)-benzeneacetamide mono-tosylate salt]

onset of thermal decomposition ([1]; mono-tosylate salt): 189 °C
form recovered (XRPD) after competitive slurrying ([4]; forms 1, 4 and 5 together in saturated ethanol, 48 hours, ambient temperature and 60° C.): New crystalline form 6 was observed
SMILES: Cc1ccc(S(=O)(=O)O)cc1.NC[C@@H](C(=O)Nc1ccc2cnccc2c1)c1ccc(CO)cc1 [crystalline form 1, alpha-(aminomethyl)-4-(hydroxymethyl)-N-6-isoquinolinyl-(S)-benzeneacetamide mono-tosylate salt]

Enthalpy [1, 6]: 165.0 J/g
Onset Temperature [1, 6]: 196.2 °C
Signal Temperature [1, 6]: 201.5 °C
stability of the form (conclusion from thermal and NMR analyses) ([1]; no loss in mass on heating prior to melting/decomposition): stable anhydrous form
form after drying of the recovered solids ([4]; dried at 40° C. for 2 hours): retained on drying
SMILES: Cc1ccc(S(=O)(=O)O)cc1.NC[C@@H](C(=O)Nc1ccc2cnccc2c1)c1ccc(CO)cc1 [crystalline form 6, alpha-(aminomethyl)-4-(hydroxymethyl)-N-6-isoquinolinyl-(S)-benzeneacetamide mono-tosylate salt]
